Test results: patent US20150306107A1, “SAA Derivative Compound Restores eNOS And Inhibits Oxidative Stress-Induced A Diseases In Hypoxia” (JANSFAT BIOTECHNOLOGY CO., LTD., priority 2014, published 2015)
Counter-ions that a name gives are not always drawn.

How the values were obtained:
eNOS [1] = assay: Western blotting of eNOS expression in isolated rat pulmonary artery ring, short-term (acute) hypoxia or normoxia; assay type: cell-based; settings: acute hypoxia
Procedure: (§1) In our in vitro short-term experiment, isolated rat pulmonary artery was grown under normoxia (20% O2) or hypoxia (1% O2) at 37° C. for 24 hrs as was previously done (Wu BN, et al. Int J Immunopathol Pharmacol 24:925, 2011). The heart weight and body weight ratio (HW/BW) of the rats treated with one of SPAAX-1, SPAAX-1 RX complex, Sildenafil or Sildenafil RX complex each measured on the 21st hypoxic day. All animal care and the experimental protocols of this study were approved by the Animal Care and Use Committee of the Kaohsiung Medical University. Male Wistar rats (200-250 g), provided by the National Laboratory Animal Breeding and Research Center (Taipei, Taiwan), were housed under constant temperature and controlled illumination. Food and water were available ad libitum.
(§2) Whole right lung tissues of hypoxia-treated and untreated rats were isolated and cut into small strips and placed into an extraction buffer (Tris 10 mM, pH 7.0, NaCl 140 mM, PMSF 2 mM, DTT 5 mM, NP-40 0.5%, pepstatin A 0.05 mM and leupeptin 0.2 mM) for protein extraction, and then centrifuged at 12,500 g for 30 min. To measure the expression levels of the proteins, the total proteins were extracted and Western blotting analysis was performed as described previously (Bivalacqua T J, et al., 2013, TJ PLoSONE 8: e68028. doi:10.1371/journal. pone.0068028). Briefly, the protein extract was boiled to a ratio of 4:1 with a sample buffer (Tris 100 mM, pH 6.8, glycerol 20%, SDS 4% and bromophenol blue 0.2%). Electrophoresis was performed using 10% SDS-polyacrylamide gel (2 hr, 100 V, 40 mA, […] protein per lane). Separated proteins were transferred to PVDF membranes treated with 5% fat-free milk powder to block the nonspecific IgGs (90 min, 100 V) and incubated for one hour with a specific protein antibody. The blot was then incubated with anti-mouse or anti-goat IgG linked to alkaline phosphatase (1:1000) for 1 hr. Immunoreactive bands were visualized using horseradish peroxidase-conjugated secondary antibodies and subsequent electrochemiluminescence (ECL) detection (GE Healthcare Bio-Sciences Corp., Piscataway, N.J., U.S.A.). Mouse or rabbit monoclonal antibody of eNOS (Upstate, N.Y., U.S.A.), sGCα (Sigma-Adrich, CA, U.S.A., sGCβ (Santa Cruz, Calif., U.S.A.), PDE-5A (BD Tansduction, San Jose, Calif., U.S.A.), PKG (Calbiochem, San Diego, Calif., U.S.A.) ROCKII (Upstate, N.Y., U.S.A.), RhoA (Santa Cruze, Calif., U.S.A.) and the loading control protein β-actin (Sigma-Adrich, MO, U.S.A.) were used in our Western blot analysis.
(§3) The Western blotting analysis measurements were performed as per lung tissue.

VEGF [2] = assay: Western blotting of VEGF expression in isolated rat pulmonary artery ring, short-term (acute) hypoxia; assay type: cell-based
Procedure: as §1, §2, §3

ROCK II [3] = assay: Western blotting of ROCK II expression in isolated rat pulmonary artery ring, short-term (acute) hypoxia or normoxia; assay type: cell-based; settings: acute hypoxia; Normoxia 100, Hypoxia 560 ± 21
Procedure: as §1, §2, §3

eNOS [4] = assay: Western blotting of eNOS expression in rat carvenosus strip, acute hypoxia; assay type: cell-based; design: unit not given here; settings: Normoxia 100, Hypoxia 62.4 ± 5.5
VEGF [5] = assay: Western blotting of VEGF expression in rat carvenosus strip, acute hypoxia; assay type: cell-based; design: unit not given here; settings: Normoxia 100, Hypoxia 170 ± 15
ROCK II [6] = assay: Cigarette smoking-induced Rho/ROCK activation of rat pulmonary artery ring; assay type: in vivo; settings: Intraperitoneal (100 mg/kg) 1 h prior to smoke exposure, Non-Smoking control 100, Smoking 530 ± 34
Procedure: Intraperitoneal SAA complex (100 mg/kg in 200 μl of the solution) or 200 μl of saline (control) were given to animals through intraperitoneal injection 1 h prior to smoke exposure.
as §2

ROCK II [7] = assay: Streptozotocin (STZ) induced RhoA/ROCKII activation of rat carvenosa tissue; assay type: in vivo; settings: STZ model; 2.5 mg/kg; Control 100, STZ 142 ± 28
Procedure: (§4) Electrophoresis was performed using 10% SDS-polyacrylamide gel (2 hr, 100 V, 40 mA, […] protein per lane). Separated proteins were transferred to PVDF membranes treated with 5% fat-free milk powder to block the nonspecific IgGs (90 min, 100 V) and incubated for one hour with a specific protein antibody. The blot was then incubated with anti-mouse or anti-goat IgG linked to alkaline phosphatase (1:1000) for 1 hr. Immunoreactive bands were visualized using horseradish peroxidase-conjugated secondary antibodies and subsequent electrochemiluminescence (ECL) detection (GE Healthcare Bio-Sciences Corp., Piscataway, N.J., U.S.A.). Mouse or rabbit monoclonal antibody of eNOS (Upstate, N.Y., U.S.A.), sGCα (Sigma-Adrich, CA, U.S.A., sGCβ (Santa Cruz, Calif., U.S.A.), PDE-5A (BD Tansduction, San Jose, Calif., U.S.A.), PKG (Calbiochem, San Diego, Calif., U.S.A.) ROCKII (Upstate, N.Y., U.S.A.), RhoA (Santa Cruze, Calif., U.S.A.) and the loading control protein β-actin (Sigma-Adrich, MO, U.S.A.) were used in our Western blot analysis.

eNOS [8] = assay: Streptozotocin (STZ) induced eNOS down-regulation of rat carvenosa tissue; assay type: in vivo; settings: STZ model; 2.5 mg/kg; Control 100, STZ 60 ± 7.3
Procedure: as §4

ROCK II [9] = assay: Cigarette smoking-induced Rho/ROCK activation of rat pulmonary artery ring; assay type: in vivo; settings: Nebulization (2.5 mM), Non-Smoking control 100, Smoking 540 ± 28
sGCα1 [10] = assay: Western blotting of sGCα1 expression in isolated pulmonary artery, short-term hypoxia; assay type: cell-based, rat
Procedure: as §1
Whole right lung tissues of hypoxia-treated and untreated rats were isolated and cut into small strips and placed into an extraction buffer (Tris 10 mM, pH 7.0, NaCl 140 mM, PMSF 2 mM, DTT 5 mM, NP-40 0.5%, pepstatin A 0.05 mM and leupeptin 0.2 mM) for protein extraction, and then centrifuged at 12,500 g for 30 min. To measure the expression levels of the proteins, the total proteins were extracted and Western blotting analysis was performed as described previously (Bivalacqua T J, et al., 2013, TJ PLoSONE 8: e68028. doi:10.1371/journal. pone.0068028). […]

hypoxic rats [11] = assay: Hemodynamics of rats with hypoxic PAH, chronic hypoxia 21 days; assay type: in vivo, rat; settings: 5 mg/kg/day, p.o.
From the text: Int J Immunopathol Pharmacol 24:925, 2011). The heart weight and body weight ratio (HW/BW) of the rats treated with one of […] complex, Sildenafil or Sildenafil RX complex each measured on the 21st hypoxic day. All animal care and the experimental protocols of this study were approved by the Animal Care and Use Committee of the Kaohsiung Medical University. Male Wistar rats (200-250 g), provided by the National Laboratory Animal Breeding and Research Center (Taipei, Taiwan), were housed under constant temperature and controlled illumination. Food and water were available ad libitum. Normoxic rats were housed in room temperature air at normal atmospheric pressure (760 mm Hg). […] After completion of the exposure, tissues were prepared as indicated for contraction measurements, Western blot analysis, RNA extraction, or morphological analysis. […] Their breathing was normal and their body temperature was maintained at 37° C. […] The animals were then sacrificed by the administration of an overdose of urethane.

hypoxic rats [12] = assay: Pulmonary artery wall thickness and muscularization (HE staining) after long-term hypoxia; assay type: in vivo, rat
Procedure: (§5) The right lobes of the rat lungs and heart of six rats from each group were cut and soaked in formalin, dehydrated through graded alcohols, and embedded in paraffin wax. The lung tissue specimens fixed with formalin (4%) were embedded in paraffin for one hour at 4° C., cut into 4-μm-thick sections, and subjected to H&E staining before examination by light microscope. In our histopathological study, we measured the thickening of the medial wall of the small intrapulmonary arteries under an Eclipse TE2000-S (Nikon) microscope. In the heart tissues, the 4-μm-thick paraffin sections were cut from paraffin-embedded tissue blocks and de-paraffinized by immersion in xylene and rehydrated as previously described (Bivalacqua T J, et al., PLoSONE 8: e68028. doi:10.1371/journal. pone.0068028). The slices were then dyed with H&E. After gently rinsing with water, each slide was dehydrated through graded alcohols and finally soaked in xylene twice. The relative cardiac weight of right ventricle (RV)/[left ventricle (LV)+intraventricular septum (S)] ratio (i.e. right heart index) was calculated using right ventricle/left ventricle+septum (RV/LV+S). Measurements were obtained with Histolab software (Microvision Instruments, Evry, France).

hypoxic rats [13] = assay: Right ventricular hypertrophy (RV/LV+S, right heart index) after long-term hypoxia; assay type: in vivo, rat; settings: compared to the hypoxia state
Procedure: as §5

eNOS [14] = assay: Immunohistochemistry of eNOS in pulmonary artery wall after long-term hypoxia; assay type: in vivo, rat
Procedure: (§6) For histological analysis, the rat pulmonary right lung sections or pulmonary artery were fixed in 4% formaldehyde for 1 hour at 4° C. After washing with phosphate buffer saline (PBS), they were sent for paraffin-embedded serial-sections. Serial cross-sections 7 μm thick were obtained from the cross-section of each pulmonary artery. Tissue sections were deparaffinized and rehydrated in an ethanol series. After tissue rehydration, endogenous peroxidase activity was quenched with 3% hydrogen peroxide for 30 minutes, and the sections were gently washed in PBS. Non-specific binding was blocked by incubation with 1% nonimmune bovine serum albumin (BSA) in PBS for 30 minutes at room temperature.
(§7) The tissue sections were incubated for 1 hour at room temperature with antibody against VEGF (ab1442, Millipore) or against eNOS (ab5589, Abcam) diluted 1:200 in PBS with 1% BSA. After being washed with PBS, the sections were incubated for 1 hour at room temperature with biotinylated goat antibody against rabbit (Dako, E-0432) and diluted 1:200 in PBS for 30 minutes at room temperature. The reaction was visualized by the addition of 3-3-diaminobenzidine (DAB) in a working solution of DAB substrate kit for peroxidase (vector lab, SK-4100) at room temperature for 5 minutes. The sections were washed in PBS for 10 minutes between each step, and counterstained with haematoxylin. […]

VEGF [15] = assay: Immunohistochemistry of VEGF in pulmonary artery wall after long-term hypoxia; assay type: in vivo, rat
Procedure: as §6, §7

eNOS [16] = assay: Western blotting of eNOS in lung tissue after long-term hypoxia; assay type: in vivo, rat; settings: hypoxia 21 days; compared to normoxia control
sGCα1 [17] = assay: Western blotting of sGCα1 in lung tissue after long-term hypoxia; assay type: in vivo, rat; settings: hypoxia 21 days; compared to normoxia control
PKG = assay: Western blotting of PKG in lung tissue after long-term hypoxia; assay type: in vivo, rat; settings: hypoxia 21 days
Procedure: as §2, with “Mouse or rabbit monoclonal antibody of eNOS (Upstate, N.Y., U.S.A.), sGCα (Sigma-Adrich, CA, U.S.A., sGCβ (Santa Cruz, Calif., U.S.A.), PDE-5A (BD Tansduction, San Jose, Calif., U.S.A.), PKG (Calbiochem, San Diego, Calif., U.S.A.) ROCKII (Upstate, N.Y., U.S.A.), RhoA (Santa Cruze, Calif., U.S.A.) and the loading control protein β-actin (Sigma-Adrich, MO, U.S.A.) were used in our Western blot analysis.” left out

ROCK II [18] = assay: Western blotting of ROCK II in lung tissue after long-term hypoxia; assay type: in vivo, rat; settings: hypoxia 21 days; hypoxia 144.7±12.6%
VEGF [19] = assay: Western blotting of VEGF in lung tissue after long-term hypoxia; assay type: in vivo, rat; settings: hypoxia 21 days; hypoxia 168.9±24.6%
PDE5A = settings: hypoxia 21 days; % of the normal level; hypoxia 43.8±12.6%
[20] = system: reactive oxygen species (ROS) of lung tissues; settings: long-term hypoxia
Procedure: In our in vivo hypoxic experiments, 10-week old male Wistar rats were equally divided into four groups: a normoxia group, a hypoxia group, a hypoxia+SPAAX-1 or SPAAX-1 RX complex group, and a hypoxia+Sildenafil or Sildenafil RX complex group. All the rats were maintained on a 12-h light/12-hr dark cycle at 25±1° C. and were provided with food and water ad libitum. The normoxia group was housed in standard normoxic conditions and the other three treated groups were continuously housed in a hypoxic chamber (10% O2) for 21 days, except for a 30-min interval each day when the chamber was cleaned (FIG. 2). During which, a normoxic gas mixture was prepared from compressed air.
Pulmonary ROS was measured using 2′-7′-dichloro-fluorescein (H2DCF-DA, Molecular Probe, USA). Briefly, 10 μl of lung tissue extract was diluted 100-fold with cold PBS and labelled with 5 μmol/L 2′-7′-dichlorofluorescein, and the mixture was incubated at 37° C. for 30 minutes and put in a centrifuge (1000 rpm) for 5 min. Fluorescence was measured at 485 nm excitation and 530 nm emission to determine the concentration of H2O2 (FLUOstar Galaxy, Germany).

NOx in lung tissue = settings: 21 days of hypoxia; control group 100%, hypoxia 59.8±3.7%
Procedure: All the rats were maintained on a 12-h light/12-hr dark cycle at 25±1° C. and were provided with food and water ad libitum. The normoxia group was housed in standard normoxic conditions and the other three treated groups were continuously housed in a hypoxic chamber (10% O2) for 21 days, except for a 30-min interval each day when the chamber was cleaned (FIG. 2). During which, a normoxic gas mixture was prepared from compressed air.
Production of NO, represented by its metabolite nitrate+nitrite (NOx), in lung tissue extracts was determined using the Griess method (Chung H H et al, Br J Pharmacol 160: 971, 2010; Vascular Pharmacology 53: 239, 2010). The three step Greiss test converts nitrate (NO3^−) into nitrite (NO2^−), resulting in a total NO2^− concentration from a standard calibration curve. The lung tissue extracts were homogenized, washed with PBS and incubated in a lysis buffer in addition to a protease inhibitor cocktail (Sigma, St. Louis, Mo.) to obtain the extracts of lung proteins. […] The samples were then incubated (25° C, 10 min) with Griess reagent [N-(1-naphthyl)-ethylenediamine: 0.2% (w/v), sulphanilamide: 2% (w/v), solubilized in double-distilled water: 95% and phosphoric acid: 5% (v/v)] and the absorbance measured at 540 nm. […]

Structure (SMILES): CCCc1nn(C)c2c(=O)[nH]c(-c3cc(S(=O)(=O)N4CCN(C)CC4)ccc3OCC)nc12 [Reagent 1004, Sildenafil citrate complex, reference compound]
- eNOS expression, Pulmonary Artery Ring (eNOS [1]; Normoxia 100, Hypoxia 65.3 ± 7.8): 132 ± 6.6
- VEGF expression, Pulmonary Artery Ring (VEGF [2]; Normoxia 100, Hypoxia 175 ± 14): 110 ± 3.8
- ROCK II expression, Pulmonary Artery Ring (ROCK II [3]): 205 ± 8.5
- eNOS expression, Carvenosus (eNOS [4]): 125 ± 6.9
- VEGF expression, Carvenosus (VEGF [5]): 105 ± 9.2
- ROCK II of pulmonary artery ring (ROCK II [6]): 76 ± 6.8
- ROCK II, Carvanosus tissue (ROCK II [7]): 44 ± 3.8%
- eNOS, Carvanosus tissue (eNOS [8]): 74 ± 6.8%
- ROCK II of pulmonary artery ring (ROCK II [9]): 64 ± 3.8

Structure (SMILES): CCCc1nn(C)c2c(=O)[nH]c(-c3cc(S(=O)(=O)N4CCN(C)CC4)ccc3OCC)nc12.O=C1OC(C(O)CO)C(O)=C1O [Sildenafil ascorbate complex]
- eNOS in acute hypoxia (eNOS [1]; isolated pulmonary artery): restored
- VEGF in acute hypoxia (VEGF [2]; isolated pulmonary artery): inhibited
- SGC-a in hypoxia (sGCα1 [10]): neither SPAAX-1 ascorbate complex nor Sildenafil ascorbate complex significantly affected
- BW (body weight) (hypoxic rats [11]): 275.1 ± 10.4 g
- MPAP (mean pulmonary arterial pressure) (hypoxic rats [11]; normoxia 12.9 ± 0.9, hypoxia 26.5 ± 0.6): 19.8±0.7 mmHg
- hypoxia-induced pulmonary artery wall thickness (hypoxic rats [12]; hypoxia 21 days, 5 mg/kg/day, hypoxia 165.8±5.4%): inhibited
- muscularizations of distal pulmonary artery (HE staining) (hypoxic rats [12]; hypoxic rats, versus vehicle only): significantly lower
- thickness of Right ventricular (hypoxic rats [13]): reduced
- eNOS immunostaining reactivity of pulmonary artery (eNOS [14]): restored the decay of eNOS
- VEGF immunostaining reactivity of pulmonary artery (VEGF [15]): reduced
- eNOS expression in lung tissue (eNOS [16]): 102.6±7.7%
- sGCα1 expression in lung tissue (sGCα1 [17]): 72.0±4.7%
- PKG expression in lung tissue (PKG): 68.7±3.7%
- ROCKII expression in lung tissue (ROCK II [18]): 97.4±10.9%
- VEGF expression in lung tissue (VEGF [19]): 125.7±22.5%
- PDE5A expression in lung tissue (PDE5A): 109.0±3.8%
- hypoxia-induced increase of dichlorofluorescein (ROS of lung tissues) [20]: reduced
- levels of NOx in lung tissue (NOx in lung tissue): 84.5±14.2%
